# Test results from patent US20130310256A1, “HERBICIDAL COMPOSITIONS COMPRISING 4-AMINO-3-CHLORO-5-FLUORO-6-(4-CHLORO-2-FLUORO-3-METHOXYPHENYL) PYRIDINE-2-CARBOXYLIC ACID OR A DERIVATIVE THEREOF AND VLCFA AND LIPID SYNTHESIS INHIBITING HERBICIDES” (DOW AGROSCIENCES LLC, priority 2008, published 2013).
# Columns and labels:
# SCPJU [1] = test: Example V: field trial, in-water application to transplanted rice, Niigata, Japan; type: in vivo, Scirpus juncoides; conditions: 31 DAA, submerged weeds
# Protocol: Post and pre-emergence field trials were conducted in Niigata, Japan. Trial sites were located in commercially grown fields of transplanted rice (Oryza sativa, variety: Koshihikari) using standard herbicide small plot research methodology. The trial plot size was 2 meters (m)×2 m with 3 replications. The nursery plants were grown in the greenhouse using practical methods and transplanted into the field at the 2.5-leaf stage on May 7, 2012. The row and in-row spaces were 30 cm and 17 cm, respectively. The crop was grown using normal cultural practices for fertilization, water management and maintenance to ensure good growth of the crop and the weeds.
# Treatments consisted of the benzyl ester of 4-amino-3-chloro-5-fluoro-6-(4-chloro-2-fluoro-3-methoxyphenyl)pyridine-2-carboxylic acid (Compound A) formulated as an SC (suspension concentrate) and various herbicidal components alone and in combination. Compound A benzyl ester was applied on an active ingredient basis. […]
# Compound A benzyl ester SC was once diluted in 100 mL water in the 200 mL bottle/plot to achieve the desired rates and applied by water injection. […] Visual weed control was scored on a scale of 0 to 100 percent where 0 corresponds to no injury and 100 corresponds to complete kill. […]
# SCPJU [2] = test: Example II: in-water applied weed control, transplanted paddy rice, greenhouse; type: in vivo, Schoenoplectus juncoides (Roxb.) Palla (Japanese bulrush)
# Protocol: Weed seeds or nutlets of the desired test plant species were planted in puddled soil (mud) prepared by mixing a shredded, non-sterilized mineral soil (50.5 percent silt, 25.5 percent clay, and 24 percent sand, with a pH of about 7.6 and an organic matter content of about 2.9 percent) and water at a 1:1 volumetric ratio. The prepared mud was dispensed in 365 mL aliquots into 16-ounce (oz.) non-perforated plastic pots with a surface area of 86.59 square centimeters (cm^2) leaving a headspace of 3 centimeters (cm) in each pot. Mud was allowed to dry overnight prior to planting or transplanting. Rice seeds were planted in Sun Gro MetroMix® 306 planting mixture, which typically has a pH of 6.0 to 6.8 and an organic matter content of about 30 percent, in plastic plug trays. Seedlings at the second or third leaf stage of growth were transplanted into 840 mL of mud contained in 32-oz. non-perforated plastic pots with a surface area of 86.59 cm^2 4 days prior to herbicide application. The paddy was created by filling the headspace of the pots with 2.5 to 3 cm of water. When required to ensure good germination and healthy plants, a fungicide treatment and/or other chemical or physical treatment was applied. The plants were grown for 4-22 days in a greenhouse with an approximate 14 hr photoperiod which was maintained at about 29′C during the day and 26° C. during the night. Nutrients were added as Osmocote® (19:6:12, N:P:K+ minor nutrients) at 2 g per 16-oz. pot and 4 g per 32-oz. pot. […]
# Treatment requirements for each compound or herbicidal component were calculated based upon the rates being tested, the concentration of active ingredient or acid equivalent in the formulation, an application volume of 2 mL per component per pot, and an application area of 86.59 cm^2 per pot.
# For formulated compounds, a measured amount was placed in an individual 100 or 200 mL glass vial and was dissolved in a volume of 1.25% (v/v) Agri-Dex® crop oil concentrate to obtain application solutions. […]
smiles,measurement,setting,value
"CCS(=O)(=O)Oc1ccc2c(c1)C(C)(C)CO2 [Benfuresate, 2,3-dihydro-3,3-dimethyl-5-benzofuranyl ethanesulfonate]",Visual Weed Control SCPJU Obs,SCPJU [1]; 600 gai/ha,64.3%
"COc1c(Cl)ccc(-c2nc(C(=O)O)c(Cl)c(N)c2F)c1F [Compound A Acid, 4-amino-3-chloro-6-(4-chloro-2-fluoro-3-methoxyphenyl)-5-fluoropyridine-2-carboxylic acid]",Visual Weed Control (%) - 20 DAA SCPJU Obs,SCPJU [2]; 8.75 gae/ha,40%
"COc1c(Cl)ccc(-c2nc(C(=O)OCc3ccccc3)c(Cl)c(N)c2F)c1F [Compound A Benzyl Ester, benzyl ester of 4-amino-3-chloro-5-fluoro-6-(4-chloro-2-fluoro-3-methoxy-phenyl)pyridine-2-carboxylic acid]",Visual Weed Control SCPJU Obs,SCPJU [1]; 100 gai/ha,87.7%
"CCCOCCN(C(=O)CCl)c1c(CC)cccc1CC [Pretilachlor, 2-chloro-N-(2,6-diethylphenyl)-N-(2-propoxyethyl)acetamide]",Visual Weed Control (%) - 20 DAA SCPJU Obs,SCPJU [2]; 75 gai/ha,50%
same,Visual Weed Control (%) - 20 DAA SCPJU Obs,SCPJU [2]; 150 gai/ha,20%
